In PubChem BioAssay AID624265 (Broad Institute, 2012):
“And” between values parts separate entries of the source, which are not always exact repeats. Identical values can stand only once. The source made the active and inactive calls.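 Rule for the calls: active = at a dose no more than twice the top valid tested dose, the fitted curve drops below -35% activity change; inactive = the rest, rising-direction activity included.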

Experiment: cytotoxicity in NIH3T3 fibroblasts, dose response, cytotoxicity control for HSP40 inhibitor project, cell-based, CellTiter-Glo luminescence, cherry-pick, set 2 (AID 624265);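 note: cells exposed to compound for 48 hours before the ATP read; 0% = median neutral control signal and -100% = no luminescence left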
Details: NIH3T3 viability, CellTiter-Glo ATP luminescence; at 16 µM (top of the series)

Q: With `CC(C)C(=O)NC(c1ccco1)c1ccc2cccnc2c1O` (stereo unspecified) as the molecule, how does the activity change, negative = toxicity read?
A: -30% (inactive)

Same assay, conditions: NIH3T3 viability, CellTiter-Glo ATP luminescence; at 50 µM (top of the series)

Q: For `Nc1nc(-c2ccccc2)c(-c2ccc([N+](=O)[O-])cc2)s1`, which activity change, negative = toxicity is on record?
A: 15.2% (inactive)

Q: For `CCCCNC(=S)N/N=C1\CCCCc2ccccc21`, which activity change, negative = toxicity is on record?
A: 1.99% (inactive)

Q: Which activity change, negative = toxicity does the source give for `CC(=O)Nc1cccc(NC(=O)CSc2ccc(-c3ccccn3)nn2)c1` here?
A: -9.54% (inactive)

Q: For `CCCCNc1c(-c2ccc(-c3ccc(OC)cc3)c(OC)c2)nc2ccccn12`, which activity change, negative = toxicity is on record?
A: 2.06% (inactive)

Q: Which activity change, negative = toxicity does the source give for `Cc1ccc(Sc2cc(C)nc(-c3ccccn3)n2)cc1` here?
A: 11.7% (inactive)

Q: For `Cc1cc(Cl)ccc1C(=O)C1CCCN(C(=O)c2cncs2)C1` (stereo unspecified), which activity change, negative = toxicity is on record?
A: 14.2% (inactive)

Q: For `CCOc1ccc(N/N=C(/C#N)C(N)=O)cc1`, which activity change, negative = toxicity is on record?
A: 9.15% (inactive)

Q: With `CC(C)=CCc1c(O)ccc(C(=O)Cc2ccccc2)c1O` as the molecule, how does the activity change, negative = toxicity read?
A: -2.45% (inactive)

Q: With `COc1ccccc1-c1sc2cc3c(cc2c1C#Cc1cncn1C)OCO3` as the molecule, how does the activity change, negative = toxicity read?
A: 17.2% (inactive)

Q: With `Fc1ccc(CCNC(=S)Nc2ccc(F)c(Cl)c2)cc1` as the molecule, how does the activity change, negative = toxicity read?
A: -8.4% (inactive)

Q: For `Cc1cc(/C=C2\SC(=S)N(C)C2=O)c(C)n1-c1ccc(O)cc1`, which activity change, negative = toxicity is on record?
A: 6.11% (inactive)

Q: For `COc1ccc(N(C(=O)c2ccncc2)S(=O)(=O)c2ccccc2)cc1`, which activity change, negative = toxicity is on record?
A: -6.26% (inactive)

Q: Which activity change, negative = toxicity does the source give for `Cc1cc(NS(=O)(=O)c2ccc(C3CCCCC3)cc2)no1` here?
A: -14.2% (inactive)

Q: With `COC(=O)C1=C(C)NC(C)=C(C(=O)OCC(C)C)C1c1ccccc1[N+](=O)[O-]` (stereo unspecified) as the molecule, how does the activity change, negative = toxicity read?
A: -14.8% (inactive)

Q: With `CC(C)(C)C(=O)C(Oc1ccc(Cl)cc1)n1cncn1` (stereo unspecified) as the molecule, how does the activity change, negative = toxicity read?
A: 9.05% (inactive)

Q: Which activity change, negative = toxicity does the source give for `CCC(NC(=S)NCc1ccc(F)cc1)c1ccc(C(C)C)cc1` (stereo unspecified) here?
A: 41.2% (inactive)

Q: Which activity change, negative = toxicity does the source give for `O=C1Nc2c(Br)cccc2C1=O` here?
A: -1.42% (inactive)

Q: Which activity change, negative = toxicity does the source give for `O=c1c2ccccc2nc(-c2ccc(-c3ccccc3)cc2)n1-c1ccncc1` here?
A: 4% (inactive)

Q: With `Cc1nc2ccc(C(=O)NCc3ccc4c(c3)OCO4)cc2s1` as the molecule, how does the activity change, negative = toxicity read?
A: 1.22% (inactive)

Q: Which activity change, negative = toxicity does the source give for `O=C(COc1ccc([N+](=O)[O-])cc1)Nc1nc(-c2ccccn2)cs1` here?
A: -17.8% (inactive)

Q: For `CCC1=NN(C(=O)c2cccc(Br)c2)C(O)(c2ccc(Br)cc2)C1` (stereo unspecified), which activity change, negative = toxicity is on record?
A: 4.18% (inactive)

Q: Which activity change, negative = toxicity does the source give for `O=C(Nc1nnc(-c2cccs2)o1)c1cccc(Oc2ccccc2)c1` here?
A: -7.72% (inactive)

Q: Which activity change, negative = toxicity does the source give for `CC/C(=N/NC(=O)c1ccccc1O)c1c(C)[nH]n(-c2ccccc2)c1=O` here?
A: -2.64% (inactive)

Q: For `CC1=NN(C(N)=S)C(=O)C1N=Nc1cccc(Cl)c1C` (stereo unspecified), which activity change, negative = toxicity is on record?
A: -14.8% (inactive)

Q: For `CC1=CC(C)(C)N(S(=O)(=O)c2ccc(C)cc2)c2ccc(C)cc21`, which activity change, negative = toxicity is on record?
A: 9.86% (inactive)

Q: For `O=C(O)c1c(NC(=O)N2CCCC2)sc2c1CCCC2`, which activity change, negative = toxicity is on record?
A: 19.6% (inactive)

Q: Which activity change, negative = toxicity does the source give for `Oc1ccccc1-c1cc(-c2ccc3c(c2)OCCO3)n[nH]1` here?
A: -2.25% (inactive)

Q: With `c1ccc(-c2ccc(OCCCn3cncn3)cc2)cc1` as the molecule, how does the activity change, negative = toxicity read?
A: 5.17% (inactive)

Q: Which activity change, negative = toxicity does the source give for `COC(OC)c1ccc(C#N)c(SCc2ccccc2)n1` here?
A: -6.85% (inactive)

Q: For `Cc1ccc(NC(=O)CN(C)C(=O)c2cccnc2Nc2cccc(C(F)(F)F)c2)cc1`, which activity change, negative = toxicity is on record?
A: -0.151% (inactive)

Q: Which activity change, negative = toxicity does the source give for `Cc1cccc(NC(=S)NC(C)CCc2ccccc2)c1` (stereo unspecified) here?
A: 12.9% (inactive)

Q: With `O=C(O)CSc1nc(-c2ccc(Cl)cc2)nc2c1oc1ccccc12` as the molecule, how does the activity change, negative = toxicity read?
A: -3.22% (inactive)

Q: Which activity change, negative = toxicity does the source give for `CC(/C=N/n1c(COc2ccccc2)n[nH]c1=S)=C\c1ccccc1` here?
A: 14.6% (inactive)

Q: For `CCN1C(=O)C(CC(=O)Nc2ccccc2Cl)N(NC(=O)c2cccc(F)c2)C1=S` (stereo unspecified), which activity change, negative = toxicity is on record?
A: 11.9% (inactive)

Q: For `O/N=C/c1cc(Br)ccc1OCc1ccccc1F`, which activity change, negative = toxicity is on record?
A: 7.25% (inactive)

Q: With `CC1(C(=O)OCC(=O)Nc2ccc3ccccc3c2)CC1(Cl)Cl` (stereo unspecified) as the molecule, how does the activity change, negative = toxicity read?
A: 0.196% (inactive)

Q: Which activity change, negative = toxicity does the source give for `Cc1ccoc1C(=O)Nc1cccc(Oc2ccccc2)c1` here?
A: 9.85% (inactive)

Q: For `Cc1nc(-c2ccccn2)nc(N(C)c2ccccc2)c1Cl`, which activity change, negative = toxicity is on record?
A: 9.36% (inactive)

Q: With `Cc1cccc(Nc2nc(-c3ccc(O)cc3O)cs2)n1` as the molecule, how does the activity change, negative = toxicity read?
A: 0.061% (inactive)

Q: With `COc1cc(NS(=O)(=O)c2ccc(C)cc2)c2ncccc2c1` as the molecule, how does the activity change, negative = toxicity read?
A: 5.44% (inactive)

Q: With `CCOC(=O)c1cnc(-n2nc(C)cc2C)nc1NC1CCCC1` as the molecule, how does the activity change, negative = toxicity read?
A: 37.9% (inactive)

Q: For `Clc1ccc(C2=NCCN2)cc1`, which activity change, negative = toxicity is on record?
A: 6.22% (inactive)

Q: Which activity change, negative = toxicity does the source give for `COc1cccc(/C=N/NC(=O)c2nc(-c3ccccc3)cc(-c3ccccc3)n2)c1O` here?
A: -8.68% (inactive)

Q: For `CCCn1nc(C(=O)N2CCN(S(=O)(=O)c3ccc(C)c(C)c3)CC2)c2ccccc2c1=O`, which activity change, negative = toxicity is on record?
A: 2.59% (inactive)

Q: Which activity change, negative = toxicity does the source give for `O=c1c(O)c(-c2ccccc2)oc2ccccc12` here?
A: -0.823% (inactive)

Q: Which activity change, negative = toxicity does the source give for `O=Cc1cc(N=Nc2ccccc2Cl)ccc1O` here?
A: -3.57% (inactive)

Q: For `Clc1ccc(COC(Cn2ccnc2)c2ccc(Cl)cc2Cl)c(Cl)c1` (stereo unspecified), which activity change, negative = toxicity is on record?
A: 5.58% (inactive) and 0.687% (inactive)

Q: For `CC1CCc2c(C(=O)Nc3ccccn3)csc2C1` (stereo unspecified), which activity change, negative = toxicity is on record?
A: -3.05% (inactive)

Q: Which activity change, negative = toxicity does the source give for `C(=C1c2ccccc2-c2ccccc21)c1ccncc1` here?
A: 14.2% (inactive)

Q: For `O=C(N/N=C/c1ccc[nH]1)c1sc2ccccc2c1Cl`, which activity change, negative = toxicity is on record?
A: -15.3% (inactive)

Q: For `Cc1ccc(-c2c3c(nc4sc(C(N)=O)c(N)c24)CCCC3)o1`, which activity change, negative = toxicity is on record?
A: 14.4% (inactive)

Q: With `O=C(c1ccccc1)c1coc2c1C(=O)c1ccccc1C2=O` as the molecule, how does the activity change, negative = toxicity read?
A: -10.3% (inactive)

Q: For `Cc1ccc(C(=O)C(SC(C)(C)C)n2cncn2)cc1` (stereo unspecified), which activity change, negative = toxicity is on record?
A: 10.4% (inactive)

Q: With `O=C(c1ccc(-c2ccccc2)cc1)C1CCCN(C(=O)c2cncs2)C1` (stereo unspecified) as the molecule, how does the activity change, negative = toxicity read?
A: -8.68% (inactive)

Q: With `Oc1c(I)cc(Cl)c2cccnc12` as the molecule, how does the activity change, negative = toxicity read?
A: -13.1% (inactive)

Q: Which activity change, negative = toxicity does the source give for `O=C(Oc1c(Cl)cc(Cl)c2cccnc12)c1cccs1` here?
A: 19% (inactive)

Q: With `Cc1c(C(=O)O)cccc1-c1ccc(/C=N/Nc2ccc(Br)cc2)o1` as the molecule, how does the activity change, negative = toxicity read?
A: -0.158% (inactive)

Q: With `C[n+]1c2cc(N)ccc2cc2ccc(N)cc21` as the molecule, how does the activity change, negative = toxicity read?
A: 14.2% (inactive)

Q: Which activity change, negative = toxicity does the source give for `Cn1ccc(=Nc2ccc(NC(=O)c3ccc(N=c4ccn(C)c5ccc([N+](=O)[O-])cc45)cc3)cc2)cc1` here?
A: 1.51% (inactive)

Q: With `CCCCC(=O)NC(=S)NNC(=O)CCc1ccccc1` as the molecule, how does the activity change, negative = toxicity read?
A: -16.3% (inactive)

Q: With `NC(=Nc1nc(-c2ccccn2)cc2ccccc12)c1ccccn1` as the molecule, how does the activity change, negative = toxicity read?
A: -27.1% (inactive)

Q: With `FC(F)(F)c1nc(SCc2ccc(Cl)cc2Cl)n[nH]1` as the molecule, how does the activity change, negative = toxicity read?
A: -4.01% (inactive)

Q: For `O=[N+]([O-])c1cc(C(F)(F)F)ccc1NCCc1c[nH]c2ccc(O)cc12`, which activity change, negative = toxicity is on record?
A: -9.08% (inactive)

Q: With `COc1cc2cnc(-c3ccccc3)c(C(=O)c3ccc(F)cc3)c2cc1OC` as the molecule, how does the activity change, negative = toxicity read?
A: 26.6% (inactive)

Q: For `Oc1c(Br)cc(-c2ccccc2)cc1Br`, which activity change, negative = toxicity is on record?
A: 10.3% (inactive)
